# Assay results published in ChEMBL document CHEMBL4706583, “2-Anilinoquinoline based arylamides as broad spectrum anticancer agents with B-RAF/C-RAF kinase inhibitory effects: Design, synthesis, in vitro cell-based and oncogenic kinase assessments” (Eur J Med Chem, 2020).
# Calls of active or inactive are those of the source. No cut-off for these calls is given here.
# Key:
# [1] = system: HCT-116; assay: Induction of apoptosis in human HCT-116 cells assessed as necrotic cells at 5 uM measured after 24 hrs by Annexin-V Alexa Fluor488/propidium iodide staining based flow cytometry (reference value: 4.6%); assay type: functional
# [2] = system: NCI-H322M; assay: Growth inhibition of human NCI-H322M cells measured after 48 hrs by SRB assay; assay type: functional
# [3] = system: HCT-116; assay: Induction of apoptosis in human HCT-116 cells assessed as viable cells at 1.25 uM measured after 48 hrs by Annexin-V Alexa Fluor488/propidium iodide staining based flow cytometry (reference value: 82.3%); assay type: functional; details: read-out: Activity
# [4] = Cytotoxicity against African green monkey Vero cells assessed as cell viability at 10 uM measured after 48 hrs by EZ-Cytox assay relative to control; assay type: cell-based; details: chlorocebus sabaeus, read-out: Activity
# [5] = system: BT-549; assay: Growth inhibition of human BT-549 cells measured after 48 hrs by SRB assay; assay type: functional
# [6] = target: High affinity nerve growth factor receptor (Homo sapiens, UniProt P04629); assay: Inhibition of human TRKA using poly[Glu:Tyr] (4:1) as substrate in presence of [gamma-33P]ATP by scintillation counting method
# Chain of High affinity nerve growth factor receptor (P04629 whole entry): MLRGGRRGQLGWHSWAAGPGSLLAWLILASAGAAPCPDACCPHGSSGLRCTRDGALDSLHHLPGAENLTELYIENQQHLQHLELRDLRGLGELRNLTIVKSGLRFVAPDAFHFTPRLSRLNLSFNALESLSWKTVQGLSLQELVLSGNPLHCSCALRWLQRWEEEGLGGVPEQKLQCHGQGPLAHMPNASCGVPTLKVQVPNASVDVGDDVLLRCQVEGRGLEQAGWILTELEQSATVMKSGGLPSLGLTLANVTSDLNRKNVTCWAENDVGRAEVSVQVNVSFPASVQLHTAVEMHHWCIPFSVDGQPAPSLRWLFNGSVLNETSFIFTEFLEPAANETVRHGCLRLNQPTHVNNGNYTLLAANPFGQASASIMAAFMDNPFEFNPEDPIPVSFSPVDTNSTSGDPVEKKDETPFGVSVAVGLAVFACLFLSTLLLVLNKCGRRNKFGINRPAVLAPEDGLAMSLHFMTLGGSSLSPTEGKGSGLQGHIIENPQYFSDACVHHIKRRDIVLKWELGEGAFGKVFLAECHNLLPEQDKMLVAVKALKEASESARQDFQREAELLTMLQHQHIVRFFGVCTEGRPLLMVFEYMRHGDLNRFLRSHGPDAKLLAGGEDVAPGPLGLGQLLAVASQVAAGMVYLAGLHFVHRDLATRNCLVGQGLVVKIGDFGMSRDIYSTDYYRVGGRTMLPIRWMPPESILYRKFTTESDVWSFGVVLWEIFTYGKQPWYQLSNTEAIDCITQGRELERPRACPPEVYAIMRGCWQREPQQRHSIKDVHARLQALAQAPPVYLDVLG
# [7] = system: HCT-116; assay: Induction of apoptosis in human HCT-116 cells assessed as necrotic cells at 5 uM measured after 48 hrs by Annexin-V Alexa Fluor488/propidium iodide staining based flow cytometry (reference value: 7.7%); assay type: functional
# [8] = species on record: Sus scrofa; assay: Induction of porcine brain tubulin polymerization at 10 uM measured at 30 secs interval for 60 mins by fluorescence assay; assay type: tissue-based
# [9] = system: SF-539; assay: Growth inhibition of human SF-539 cells measured after 48 hrs by SRB assay; assay type: functional
# [10] = system: TK-10; assay: Growth inhibition of human TK-10 cells measured after 48 hrs by SRB assay; assay type: functional
# [11] = system: NCI-H226; assay: Growth inhibition of human NCI-H226 cells measured after 48 hrs by SRB assay; assay type: functional
# [12] = system: PC-3; assay: Growth inhibition of human PC-3 cells measured after 48 hrs by SRB assay; assay type: functional
# [13] = target: Epithelial discoidin domain-containing receptor 1 (Homo sapiens, UniProt Q08345); assay: Inhibition of human DDR1 using KKSRGDYMTMQIG as substrate in presence of [gamma-33P]ATP by scintillation counting method
# Chain of Epithelial discoidin domain-containing receptor 1 (Q08345 whole entry, the tested form may be a part): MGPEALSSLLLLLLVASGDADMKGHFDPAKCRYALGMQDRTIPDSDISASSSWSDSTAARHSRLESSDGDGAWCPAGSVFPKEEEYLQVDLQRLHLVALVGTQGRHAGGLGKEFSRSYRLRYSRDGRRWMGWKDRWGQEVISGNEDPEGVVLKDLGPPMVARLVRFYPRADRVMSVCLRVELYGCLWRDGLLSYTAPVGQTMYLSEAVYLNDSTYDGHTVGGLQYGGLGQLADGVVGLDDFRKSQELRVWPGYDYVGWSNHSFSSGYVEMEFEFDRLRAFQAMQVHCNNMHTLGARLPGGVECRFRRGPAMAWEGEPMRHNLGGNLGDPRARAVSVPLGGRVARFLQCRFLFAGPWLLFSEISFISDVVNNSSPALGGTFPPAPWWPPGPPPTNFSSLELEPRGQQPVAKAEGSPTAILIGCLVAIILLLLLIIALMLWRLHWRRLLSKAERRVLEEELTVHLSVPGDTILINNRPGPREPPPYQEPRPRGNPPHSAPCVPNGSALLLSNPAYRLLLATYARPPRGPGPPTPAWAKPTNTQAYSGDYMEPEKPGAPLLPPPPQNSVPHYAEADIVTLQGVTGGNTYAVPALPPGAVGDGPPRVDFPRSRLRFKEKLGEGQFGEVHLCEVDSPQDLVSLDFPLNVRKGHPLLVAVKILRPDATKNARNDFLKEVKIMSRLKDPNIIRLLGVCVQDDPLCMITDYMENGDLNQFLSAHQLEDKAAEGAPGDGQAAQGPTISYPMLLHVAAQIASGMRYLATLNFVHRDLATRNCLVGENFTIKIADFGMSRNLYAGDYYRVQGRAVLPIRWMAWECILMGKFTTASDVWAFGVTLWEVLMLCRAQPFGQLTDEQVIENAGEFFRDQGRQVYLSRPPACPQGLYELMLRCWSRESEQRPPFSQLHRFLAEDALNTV
# [14] = system: MOLT-4; assay: Growth inhibition of human MOLT-4 cells measured after 48 hrs by SRB assay; assay type: functional
# [15] = Cytotoxicity against human L132 cells assessed as cell viability at 1 uM measured after 48 hrs by EZ-Cytox assay relative to control; assay type: cell-based; details: read-out: Activity
# [16] = system: 786-0; assay: Growth inhibition of human 786-0 cells measured after 48 hrs by SRB assay; assay type: functional
# [17] = system: A549; assay: Growth inhibition of human A549 cells measured after 48 hrs by SRB assay; assay type: functional
# [18] = system: Hs-578T; assay: Growth inhibition of human Hs-578T cells measured after 48 hrs by SRB assay; assay type: functional
# [19] = system: M14; assay: Growth inhibition of human M14 cells measured after 48 hrs by SRB assay; assay type: functional; details: for CC50: read-out: LC50 (the source's name)
# [20] = system: HCT-116; assay: Induction of apoptosis in human HCT-116 cells assessed as viable cells at 5 uM measured after 48 hrs by Annexin-V Alexa Fluor488/propidium iodide staining based flow cytometry (reference value: 82.3%); assay type: functional; details: read-out: Activity
# [21] = system: NCI-H522; assay: Growth inhibition of human NCI-H522 cells measured after 48 hrs by SRB assay; assay type: functional
# [22] = system: HCT-116; assay: Cell cycle arrest in human HCT-116 cells assessed as increase in G0/G1-phase accumulation measured after 24 to 48 hrs by propidium iodide staining based flow cytometry; assay type: functional; details: dose 1.25-5 µM, time 24-48 hrs
# [23] = system: UO-31; assay: Growth inhibition of human UO-31 cells measured after 48 hrs by SRB assay; assay type: functional
# [24] = target: RAF proto-oncogene serine/threonine-protein kinase (Homo sapiens, UniProt P04049); assay: Inhibition of human CRAF using MEK1 (K97R) as substrate in presence of [gamma-33P]ATP by scintillation counting method
# Chain of RAF proto-oncogene serine/threonine-protein kinase (P04049 whole entry): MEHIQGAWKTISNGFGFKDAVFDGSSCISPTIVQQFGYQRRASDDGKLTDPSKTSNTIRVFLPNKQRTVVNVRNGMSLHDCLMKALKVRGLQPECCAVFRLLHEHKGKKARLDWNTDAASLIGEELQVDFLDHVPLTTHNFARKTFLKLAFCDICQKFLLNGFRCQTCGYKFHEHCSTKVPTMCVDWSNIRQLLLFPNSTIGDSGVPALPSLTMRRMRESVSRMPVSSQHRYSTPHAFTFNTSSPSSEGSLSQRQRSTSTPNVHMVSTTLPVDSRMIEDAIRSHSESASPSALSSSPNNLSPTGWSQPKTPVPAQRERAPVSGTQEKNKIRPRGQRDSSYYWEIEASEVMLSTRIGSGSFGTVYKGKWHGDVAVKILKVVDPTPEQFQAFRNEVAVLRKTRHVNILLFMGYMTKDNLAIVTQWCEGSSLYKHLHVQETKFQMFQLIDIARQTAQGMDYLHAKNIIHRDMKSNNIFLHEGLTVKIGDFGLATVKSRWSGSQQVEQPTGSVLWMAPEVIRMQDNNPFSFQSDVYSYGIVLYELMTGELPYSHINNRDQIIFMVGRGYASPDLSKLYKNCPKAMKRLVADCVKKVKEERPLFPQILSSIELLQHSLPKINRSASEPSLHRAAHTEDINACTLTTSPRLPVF
# [25] = system: HCT-116; assay: Induction of apoptosis in human HCT-116 cells assessed as late apoptotic cells at 1.25 uM measured after 48 hrs by Annexin-V Alexa Fluor488/propidium iodide staining based flow cytometry (reference value: 2.2%); assay type: functional
# [26] = system: HCT-116; assay: Induction of apoptosis in human HCT-116 cells assessed as late apoptotic cells at 1.25 uM measured after 24 hrs by Annexin-V Alexa Fluor488/propidium iodide staining based flow cytometry (reference value: 1%); assay type: functional
# [27] = system: HCT-116; assay: Induction of apoptosis in human HCT-116 cells assessed as viable cells at 2.5 uM measured after 24 hrs by Annexin-V Alexa Fluor488/propidium iodide staining based flow cytometry (reference value: 88.1%); assay type: functional; details: read-out: Activity
# [28] = system: ACHN; assay: Growth inhibition of human ACHN cells measured after 48 hrs by SRB assay; assay type: functional
# [29] = system: HCT-116; assay: Induction of apoptosis in human HCT-116 cells assessed as early apoptotic cells at 2.5 uM measured after 24 hrs by Annexin-V Alexa Fluor488/propidium iodide staining based flow cytometry (reference value: 6.3%); assay type: functional
# [30] = system: HCT-116; assay: Induction of apoptosis in human HCT-116 cells assessed as late apoptotic cells at 2.5 uM measured after 48 hrs by Annexin-V Alexa Fluor488/propidium iodide staining based flow cytometry (reference value: 2.2%); assay type: functional
# [31] = system: HCT-15; assay: Growth inhibition of human HCT-15 cells measured after 48 hrs by SRB assay; assay type: functional
# [32] = system: K562; assay: Growth inhibition of human K562 cells measured after 48 hrs by SRB assay; assay type: functional
# [33] = system: HCT-116; assay: Induction of apoptosis in human HCT-116 cells assessed as necrotic cells at 1.25 uM measured after 24 hrs by Annexin-V Alexa Fluor488/propidium iodide staining based flow cytometry (reference value: 4.6%); assay type: functional
# [34] = system: CAKI-1; assay: Growth inhibition of human CAKI-1 cells measured after 48 hrs by SRB assay; assay type: functional
# [35] = system: NCI-H23; assay: Growth inhibition of human NCI-H23 cells measured after 48 hrs by SRB assay; assay type: functional
# [36] = system: SN12C; assay: Growth inhibition of human SN12C cells measured after 48 hrs by SRB assay; assay type: functional
# [37] = system: OVCAR-4; assay: Growth inhibition of human OVCAR-4 cells measured after 48 hrs by SRB assay; assay type: functional
# [38] = target: Serine/threonine-protein kinase B-raf (Homo sapiens, UniProt P15056, V600E); assay: Inhibition of human BRAF V600E mutant using MEK1 (K97R) as substrate in presence of [gamma-33P]ATP by scintillation counting method
# Chain of Serine/threonine-protein kinase B-raf (P15056 2-766 V600E limits assumed): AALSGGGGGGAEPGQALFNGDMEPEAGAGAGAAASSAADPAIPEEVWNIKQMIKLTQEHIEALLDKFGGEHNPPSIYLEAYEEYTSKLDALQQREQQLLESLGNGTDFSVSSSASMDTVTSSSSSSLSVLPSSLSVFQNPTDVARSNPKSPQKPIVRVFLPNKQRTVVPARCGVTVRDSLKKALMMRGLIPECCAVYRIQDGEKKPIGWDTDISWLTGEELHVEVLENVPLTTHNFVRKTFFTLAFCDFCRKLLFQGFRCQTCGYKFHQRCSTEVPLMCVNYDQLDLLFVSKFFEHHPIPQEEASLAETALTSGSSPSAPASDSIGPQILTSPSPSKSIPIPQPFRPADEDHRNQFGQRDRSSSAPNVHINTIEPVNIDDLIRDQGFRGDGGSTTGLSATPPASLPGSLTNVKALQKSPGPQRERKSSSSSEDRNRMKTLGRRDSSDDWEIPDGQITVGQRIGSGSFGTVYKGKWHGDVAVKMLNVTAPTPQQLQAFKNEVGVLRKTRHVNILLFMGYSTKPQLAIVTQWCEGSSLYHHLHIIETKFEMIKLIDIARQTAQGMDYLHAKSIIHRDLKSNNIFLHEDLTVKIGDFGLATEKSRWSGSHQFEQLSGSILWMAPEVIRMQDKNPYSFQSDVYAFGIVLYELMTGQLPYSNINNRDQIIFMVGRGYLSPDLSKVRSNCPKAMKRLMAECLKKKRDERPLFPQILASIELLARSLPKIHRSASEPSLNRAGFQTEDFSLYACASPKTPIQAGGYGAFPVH
# [39] = system: SF-295; assay: Growth inhibition of human SF-295 cells measured after 48 hrs by SRB assay; assay type: functional
# [40] = system: MDA-MB-468; assay: Growth inhibition of human MDA-MB-468 cells measured after 48 hrs by SRB assay; assay type: functional
# [41] = system: SW-620; assay: Growth inhibition of human SW-620 cells measured after 48 hrs by SRB assay; assay type: functional
# [42] = system: T47D; assay: Growth inhibition of human T47D cells measured after 48 hrs by SRB assay; assay type: functional
smiles,measurement,setting,value
CCN1CCN(c2cc(C(=O)Nc3cccc(Nc4ccc5c(OC)cccc5n4)c3)cc(C(F)(F)F)c2)CC1,Activity,[1],0.6%
same,GI50,[2],1.33 µM
same,viability at 1.25 µM,[3],82.7%
same,"viability at 48 h, 10 µM",[4],74.1%
same,GI50,[5],3.78 µM
same,IC50,[6],1.67 µM
same,Activity,[7],0.5%
same,Activity,[8],Active
same,GI50,[9],3.28 µM
same,GI50,[10],3.47 µM
same,GI50,[11],2.85 µM
same,GI50,[12],0.805 µM
same,IC50,[13],0.538 µM
same,GI50,[14],0.616 µM
same,"viability at 48 h, 1 µM",[15],91.2%
same,GI50,[16],3.73 µM
same,GI50,[17],1.05 µM
same,GI50,[18],3.61 µM
same,GI50,[19],0.668 µM
same,TGI,[19],1.65 µM
same,CC50,[19],5.86 µM
same,viability at 5 µM,[20],72%
same,GI50,[21],1.01 µM
same,Activity,[22],Dose-dependent effect
same,GI50,[23],0.746 µM
same,LC50 (concentration killing 50% of cells),[23],12.4 µM
same,TGI,[23],3.88 µM
same,IC50,[24],0.229 µM
same,Activity,[25],0.4%
same,Activity,[26],0.6%
same,viability at 2.5 µM,[27],82.9%
same,GI50,[28],1.21 µM
same,Activity,[29],15.6%
same,Activity,[30],1%
same,GI50,[31],0.798 µM
same,GI50,[32],0.91 µM
same,Activity,[33],0.4%
same,GI50,[34],0.917 µM
same,GI50,[35],3.41 µM
same,GI50,[36],1.39 µM
same,GI50,[37],1.57 µM
same,IC50,[38],0.888 µM
same,GI50,[39],0.803 µM
same,LC50,[39],11.4 µM
same,TGI,[39],2.25 µM
same,GI50,[40],0.749 µM
same,LC50,[40],14.6 µM
same,TGI,[40],4.05 µM
same,GI50,[41],3.67 µM
same,GI50,[42],2.05 µM
COc1cccc2nc(Nc3cccc(NC(=O)c4ccc(N5CCN(C)CC5)c(C(F)(F)F)c4)c3)ccc12,Activity,[1],4.8%
same,GI50,[2],1.65 µM
same,viability at 1.25 µM,[3],81.7%
same,"viability at 48 h, 10 µM",[4],77.1%
same,GI50,[5],2.79 µM
same,IC50,[6],34 µM
same,Activity,[7],3.5%
same,Activity,[8],Active
same,GI50,[9],0.895 µM
same,GI50,[10],2.01 µM
same,GI50,[11],2.26 µM
same,GI50,[12],1.26 µM
same,IC50,[13],2.25 µM
same,GI50,[14],0.876 µM
same,"viability at 48 h, 1 µM",[15],97%
same,GI50,[16],0.923 µM
same,GI50,[17],1.43 µM
same,GI50,[18],1.07 µM
same,GI50,[19],0.899 µM
same,TGI,[19],1.95 µM
same,CC50,[19],4.21 µM
same,viability at 5 µM,[20],61.5%
same,GI50,[21],1.04 µM
same,Activity,[22],Dose-dependent effect
same,GI50,[23],0.734 µM
same,LC50 (concentration killing 50% of cells),[23],3.04 µM
same,TGI,[23],1.49 µM
same,IC50,[24],0.37 µM
same,Activity,[25],1.7%
same,Activity,[26],1.7%
same,viability at 2.5 µM,[27],81.2%
same,GI50,[28],1.53 µM
same,Activity,[29],6.1%
same,Activity,[30],2%
same,GI50,[31],0.937 µM
same,GI50,[32],1.1 µM
same,Activity,[33],11%
same,GI50,[34],1.12 µM
same,GI50,[35],2.93 µM
same,GI50,[36],1.7 µM
same,GI50,[37],1.43 µM
same,IC50,[38],1.46 µM
same,GI50,[39],0.967 µM
same,LC50,[39],3.82 µM
same,TGI,[39],1.92 µM
same,GI50,[40],1.11 µM
same,LC50,[40],18.4 µM
same,TGI,[40],3.65 µM
same,GI50,[41],0.968 µM
same,GI50,[42],1 µM
